Columns and labels:
[1] = target: T1, DC-SIGNR CRD (Homo sapiens, UniProt Q9H2X3); experiment: 1H-15N HSQC NMR titration, chemical shift perturbation, […] fit; assay type: binding; conditions: pH 6.8, 37 °C, 20 mM HEPES-d18, 20 mM NaCl, 4 mM Ca2+, 0.7 mM protein
T1 sequence (Q9H2X3 262-399): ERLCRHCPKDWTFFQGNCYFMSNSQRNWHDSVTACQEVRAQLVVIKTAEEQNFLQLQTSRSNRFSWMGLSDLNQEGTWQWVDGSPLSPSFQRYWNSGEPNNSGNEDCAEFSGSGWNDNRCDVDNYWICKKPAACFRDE

[2] = target: T1, DC-SIGNR CRD; experiment: 1H-15N HSQC NMR titration, chemical shift perturbation; assay type: binding; conditions: pH 6.8, 37 °C, 20 mM HEPES-d18, 20 mM NaCl, 4 mM Ca2+, 0.7 mM protein; intermediate exchange, severe line broadening, KD could not be estimated

| SMILES | Kd [1] | 1H-15N HSQC NMR titration, chemical shift perturbation [2] |
| --- | --- | --- |
| OC[C@H]1O[C@H](OC[C@H]2O[C@H](OC[C@H]3OC(O)[C@@H](O)[C@@H](O[C@H]4O[C@H](CO)[C@@H](O)[C@H](O)[C@@H]4O)[C@@H]3O)[C@@H](O)[C@@H](O[C@H]3O[C@H](CO)[C@@H](O)[C@H](O)[C@@H]3O)[C@@H]2O)[C@@H](O)[C@@H](O)[C@@H]1O (stereo partly drawn) [Man5] | 2200 ± 430 µM | – |
| CC(=O)N[C@H]1C(O)O[C@H](CO)[C@@H](O[C@@H]2O[C@H](CO[C@H]3O[C@H](CO[C@H]4O[C@H](CO)[C@@H](O)[C@H](O)[C@@H]4O[C@H]4O[C@H](CO)[C@@H](O)[C@H](O)[C@@H]4O)[C@@H](O)[C@H](O[C@H]4O[C@H](CO)[C@@H](O)[C@H](O)[C@@H]4O[C@H]4O[C@H](CO)[C@@H](O)[C@H](O)[C@@H]4O)[C@@H]3O)[C@@H](O)[C@H](O[C@H]3O[C@H](CO)[C@@H](O)[C@H](O)[C@@H]3O[C@H]3O[C@H](CO)[C@@H](O)[C@H](O)[C@@H]3O[C@H]3O[C@H](CO)[C@@H](O)[C@H](O)[C@@H]3O)[C@@H]2O)[C@@H]1O (stereo partly drawn) [Man9GlcNAc] | – | binding of Man9GlcNAc caused substantial broadening and disappearance of a number of CRD peaks |
| OC[C@H]1O[C@H](OC[C@H]2OC(O)[C@@H](O)[C@@H](O[C@H]3O[C@H](CO)[C@@H](O)[C@H](O)[C@@H]3O)[C@@H]2O)[C@@H](O)[C@@H](O)[C@@H]1O (stereo partly drawn) [Man3] | 2040 ± 540 µM | – |

Reference: paper PMC3829359 (The Journal of Biological Chemistry, 2021)
